Assay results taken from US12473289B2, “Heterocyclic compounds as delta-5 desaturase inhibitors and methods of use” (Amgen Inc., priority 2019, dated 2025).

Assays:
Delta-5-Desaturase (D5D) [1] = target: Delta-5-Desaturase (D5D) (Homo sapiens (Human), UniProt O60427); assay: In vitro measurement of Delta-5-Desaturase inhibitory activity using DGLA-CoA and Arachidonyl-CoA mass spectrometric assays; assay type: biochemical; conditions: membrane preparations of D5D-overexpressing HEK293 6E cells; averaged over at least two independent runs
Sequence of Delta-5-Desaturase (D5D) (Homo sapiens (Human), UniProt O60427) (O60427 whole entry, species assumed): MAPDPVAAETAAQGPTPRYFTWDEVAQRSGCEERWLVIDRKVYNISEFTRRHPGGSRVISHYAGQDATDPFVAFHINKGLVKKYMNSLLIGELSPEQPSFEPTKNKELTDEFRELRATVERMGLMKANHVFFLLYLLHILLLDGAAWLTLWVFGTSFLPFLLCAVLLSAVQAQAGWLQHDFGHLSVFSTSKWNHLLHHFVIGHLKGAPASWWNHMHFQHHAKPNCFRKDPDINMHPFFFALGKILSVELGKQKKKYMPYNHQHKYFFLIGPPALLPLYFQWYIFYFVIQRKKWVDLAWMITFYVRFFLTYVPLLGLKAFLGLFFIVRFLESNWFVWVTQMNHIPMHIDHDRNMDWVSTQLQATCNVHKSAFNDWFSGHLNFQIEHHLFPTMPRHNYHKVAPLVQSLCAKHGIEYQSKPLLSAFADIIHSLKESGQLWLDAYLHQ
Method in brief: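 DGLA-CoA and arachidonyl-CoA were read by RapidFire SPE triple-quad MS (negative mode, MRM) after a 1 h ambient-temperature reaction quenched with acetonitrile. Enzyme was D5D-overexpressing HEK293 6E membranes at 10 μg/mL final; substrate solution held 0.01 mM DGLA plus NADH, ATP and CoA. Inhibition was referenced to DMSO and no-enzyme wells; 4PL IC50.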

Delta-5-Desaturase (D5D) [2] = target: Delta-5-Desaturase (D5D) (Mus musculus (Mouse), UniProt Q920L1); assay: In vivo measurement of Delta-5-Desaturase inhibitory activity (plasma AA/DGLA ratio in DIO mice); conditions: single oral dose 30 mg/kg, read-out: Average % D5D Inhibition expressed as Plasma Endogenous AA/DGLA Ratio
Sequence of Delta-5-Desaturase (D5D) (Mus musculus (Mouse), UniProt Q920L1) (Q920L1 whole entry): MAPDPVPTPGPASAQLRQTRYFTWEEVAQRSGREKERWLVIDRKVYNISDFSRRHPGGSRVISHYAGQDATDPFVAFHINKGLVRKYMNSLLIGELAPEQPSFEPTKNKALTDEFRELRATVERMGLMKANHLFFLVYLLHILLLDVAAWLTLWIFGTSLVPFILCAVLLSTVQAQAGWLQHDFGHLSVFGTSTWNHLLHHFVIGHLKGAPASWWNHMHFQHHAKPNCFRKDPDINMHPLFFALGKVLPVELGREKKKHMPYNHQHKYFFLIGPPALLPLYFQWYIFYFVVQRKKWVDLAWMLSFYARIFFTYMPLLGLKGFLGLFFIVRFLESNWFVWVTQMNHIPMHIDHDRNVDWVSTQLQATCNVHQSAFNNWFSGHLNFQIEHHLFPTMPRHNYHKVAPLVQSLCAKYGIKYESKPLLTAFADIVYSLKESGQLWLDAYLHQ
Description: In vivo Measurement of Delta-5-Desaturase Inhibitory Activity
Diet-induced obese (DIO; Jackson Laboratories strain #3800050) mice were used to screen for pharmacodynamic (PD) activity of test compounds. Generally, 14 to 24 week old DIO mice, were administered test compounds formulated in the vehicle of 2% hydroxypropyl methylcellulose (HPMC) and 1% Tween80. Animals were dosed on body weight by oral gavage with a single dose (30 mg/kg) for PD studies. Necropsy included plasma collection for PUFA analysis. 10 μl of plasma or standards diluted in surrogate matrix (65 g/l bovine serum albumin in Dulbecco's phosphate-buffered saline) were mixed with 10 μl of an internal standard (100 μM alpha-linolenic acid-d14 (ALA-d14, Cayman Chemical)) in a 96 well plate. 100 μl of 2N NAOH was added to the mixture for subsequent saponification at 65° C. for 1 hour. The mixture was then acidified with 50 μl of formic acid followed by two consecutive hexane extractions. Hexane (500 μl) was added and the mixture thoroughly mixed by vortexing, followed by centrifugation at 4,000 rpm for 15 min. The hexane phase was transferred to a new 1 ml 96 well plate and the remaining aqueous layer was extracted with hexane. The organic extracts were combined and the solvent was removed by placing the plate under nitrogen gas at 55° C. 250 μl of 90% methanol was added to the plate followed by vortexing for 2 minutes. 200 μl of the samples were transferred to a new 96 well polypropylene plate. The samples were analyzed on a LC-MS/MS for the following PUFAs: arachidonic acid (AA), dihomo-gamma-linolenic acid (DGLA), with ALA-d14 as the internal standard. Description of the LC-MS/MS method: 5 μl of sample was injected onto a Poroshell 120 EC-C18 3.0×50 mm, 1.9 μm id column. […] The PUFA peak areas were quantified by using the SCIEX Analyst software. […] The relative decrease of the AA/DGLA ratio of the test compound administered group relative to the vehicle administered group was calculated and used as an index for the degree of D5D inhibition.
The results presented in Table 27 were obtained using certain compounds described herein in the in vivo protocol described above.

| IC50 (Delta-5-Desaturase (D5D) [1]) | inhibition in vivo at 30 mg/kg (Delta-5-Desaturase (D5D) [2]) | Compound |
| --- | --- | --- |
| 12.4 nM | 70% | COc1ccn2c(=O)c(-c3ccc(OCC(F)(F)F)cc3)c(C(F)F)nc2c1 [Example 1-15, 2-(difluoromethyl)-8-methoxy-3-(4-(2,2,2-trifluoroethoxy)phenyl)-4H-pyrido[1,2-a]pyrimidin-4-one] |
| 5.1 nM | 66% | COc1ccn2c(=O)c(-c3ccc(OCC(F)(F)F)c(F)c3)c(C(F)(F)F)nc2c1 [Example 1-48, 3-(3-fluoro-4-(2,2,2-trifluoroethoxy)phenyl)-8-methoxy-(trifluoromethyl)-4H-pyrido[1,2-a]pyrimidin-4-one] |
| 10.9 nM | 56% | COc1ccn2c(=O)c(-c3ccc(OCC(F)(F)F)cc3)c(C3CC3)nc2c1 [Example 1-62, 2-cyclopropyl-8-methoxy-3-(4-(2,2,2-trifluoroethoxy)phenyl)-4H-pyrido[1,2-a]pyrimidin-4-one] |
| 27 nM | 60% | COc1ccn2c(=O)c(-c3ccc(OCC(F)(F)F)nc3)c(C(F)(F)F)nc2c1 [Example 7-4] |
| 19.9 nM | 57% | CNc1ccn2c(=O)c(-c3cnn(CC(F)(F)C(F)(F)F)c3)c(C(F)(F)F)nc2c1 [Example 1-23, 8-(methylamino)-3-(1-(2,2,3,3,3-pentafluoropropyl)-1H-pyrazol-4-yl)-2-(trifluoromethyl)-4H-pyrido[1,2-a]pyrimidin-4-one] |
| 42.2 nM | 62% | COc1ccn2c(=O)c(-c3cnn(CC(C)(F)F)c3)c(C(F)(F)F)nc2c1 [Example 1-39, 3-(1-(2,2-difluoropropyl)-1H-pyrazol-4-yl)-8-methoxy-2-(trifluoromethyl)-4H-pyrido[1,2-a]pyrimidin-4-one] |
| 10.1 nM | 62% | O=c1c(-c2cnn(CC(F)(F)C(F)(F)F)c2)c(C(F)(F)F)nc2cc(OCF)ccn12 [Example 45, 8-(Fluoromethoxy)-3-[1-(2,2,3,3,3-pentafluoropropyl)-1H-pyrazol-4-yl]-2-(trifluoromethyl)-4H-pyrido[1,2-a]pyrimidin-4-one] |
| 43.8 nM | 74% | O=c1ccn2c(=O)c(-c3ccc(OCC(F)(F)F)cc3)c(C(F)(F)F)[nH]c2c1 [Example 10-1, 3-(4-(2,2,2-Trifluoroethoxy)phenyl)-2-(trifluoromethyl)-4H-pyrido[1,2-a]pyrimidine-4,8(1H)-dione] |
| 121 nM | 59% | CN(C)c1ccn2c(=O)c(-c3cnn(CC(F)(F)C(F)(F)F)c3)c(C(F)(F)F)nc2c1 [Example 1-22, 8-(dimethylamino)-3-(1-(2,2,3,3,3-pentafluoropropyl)-1H-pyrazol-4-yl)-2-(trifluoromethyl)-4H-pyrido[1,2-a]pyrimidin-4-one] |
| 14.5 nM | 73% | [2H]C([2H])([2H])Oc1ccn2c(=O)c(-c3ccc(OCC(F)(F)F)cc3)c(C(F)(F)F)nc2n1 [Example 1-59, 8-(methyloxy-d3)-3-(4-(2,2,2-trifluoroethoxy)phenyl)-2-(trifluoromethyl)-4H-pyrimido[1,2-a]pyrimidin-4-one] |
| 6.6 nM | 75% | CCc1nc2cc(OC)ccn2c(=O)c1-c1ccc(OCC(F)(F)F)cc1 [Example 1-77, 2-ethyl-8-methoxy-3-(4-(2,2,2-trifluoroethoxy)phenyl)-4H-pyrido[1,2-a]pyrimidin-4-one] |
| 14.8 nM | 51% | Nc1ccn2c(=O)c(-c3cnn(CC(F)(F)C(F)(F)F)c3)c(C(F)(F)F)nc2c1 [Example 6-1, 8-Amino-3-(1-(2,2,3,3,3-pentafluoropropyl)-1H-pyrazol-4-yl)-2-(trifluoromethyl)-4H-pyrido[1,2-a]pyrimidin-4-one] |
| 15.2 nM | 71% | COc1ccn2c(=O)c(-c3cnn(CCC(F)(F)F)c3)c(C(F)(F)F)nc2c1 [Example 1-69, 8-methoxy-2-(trifluoromethyl)-3-[1-(3,3,3-trifluoropropyl)pyrazol-4-yl]pyrido[1,2-a]pyrimidin-4-one] |
| 11.3 nM | 67% | COc1ccn2c(=O)c(-c3ccc(OCC(C)(F)F)cc3)c(C(F)(F)F)nc2c1 [Example 9-2, 3-(4-(2,2-difluoropropoxy)phenyl)-8-methoxy-2-(trifluoromethyl)-4H-pyrido[1,2-a]pyrimidin-4-one] |
| 20.9 nM | 71% | COc1cc2nc(C(F)(F)F)c(-c3cnn(CC(F)(F)C(F)(F)F)c3)c(=O)n2cc1F [Example 33, 7-Fluoro-8-methoxy-3-[1-(2,2,3,3,3-pentafluoropropyl)-1H-pyrazol-4-yl]-2-(trifluoromethyl)-4H-pyrido[1,2-a]pyrimidin-4-one] |
| 17.3 nM | 84% | [2H]C([2H])([2H])Oc1ccn2c(=O)c(-c3cnn(CC(F)(F)C(F)(F)F)c3)c(C(F)(F)F)nc2c1 [Example 1-33, 8-(methyloxy-d3)-3-(1-(2,2,3,3,3-pentafluoropropyl)-1H-pyrazol-4-yl)-2-(trifluoromethyl)-4H-pyrido[1,2-a]pyrimidin-4-one] |
| 29.6 nM | 77% | COc1ccn2c(=O)c(-c3cnn(CCCC(F)(F)F)c3)c(C(F)(F)F)nc2c1 [Example 1-75, 8-methoxy-3-(1-(4,4,4-trifluorobutyl)-1H-pyrazol-4-yl)-2-(trifluoromethyl)-4H-pyrido[1,2-a]pyrimidin-4-one] |
| 16.8 nM | 73% | COc1ccn2c(=O)c(-c3ccc(OCC(F)(F)F)cc3)c(C(F)(F)F)nc2n1 [Example 1-50, 8-methoxy-3-(4-(2,2,2-trifluoroethoxy)phenyl)-2-(trifluoromethyl)-4H-pyrimido[1,2-a]pyrimidin-4-one] |
| 22 nM | 60% | COc1ccn2c(=O)c(-c3ccc(OCC(F)(F)F)cc3C)c(C(F)(F)F)nc2c1 [Example 4-3, 8-methoxy-3-(2-methyl-4-(2,2,2-trifluoroethoxy)phenyl)-2-(trifluoromethyl)-4H-pyrido[1,2-a]pyrimidin-4-one] |
| 4 nM | 79% | [2H]C([2H])([2H])Oc1ccn2c(=O)c(-c3ccc(OCC(F)(F)F)cc3)c(C(F)(F)F)nc2c1 [Example 11-2, 8-(methyloxy-d3)-3-(4-(2,2,2-trifluoroethoxy)phenyl)-2-(trifluoromethyl)-4H-pyrido[1,2-a]pyrimidin-4-one] |
| 9.4 nM | 75% | O=c1c(-c2ccc(OCC(F)(F)F)cc2)c(C(F)(F)F)nc2cc(CF)ccn12 [Example 13-4, 8-(fluoromethyl)-3-(4-(2,2,2-trifluoroethoxy)phenyl)-2-(trifluoromethyl)-4H-pyrido[1,2-a]pyrimidin-4-one] |
| 22 nM | 72% | COc1ccn2c(=O)c(-c3ccc(OCC(F)(F)F)c(F)c3)c(C(F)(F)F)nc2n1 [Example 1-73, 3-(3-fluoro-4-(2,2,2-trifluoroethoxy)phenyl)-8-methoxy-2-(trifluoromethyl)-4H-pyrimido[1,2-a]pyrimidin-4-one] |
| 6.6 nM | 60% | COc1ccn2c(=O)c(-c3ccc(OCC4CC4(F)F)cc3)c(C(F)(F)F)nc2c1 (stereo not shown) [Example 1-4, 3-(4-((2,2-difluorocyclopropyl)methoxy)phenyl)-8-methoxy-2-(trifluoromethyl)-4H-pyrido[1,2-a]pyrimidin-4-one] |
| 57.2 nM | 54% | COc1ccn2c(=O)c(-c3ccc(OC(F)(F)F)cc3)c(C(F)(F)F)nc2n1 [Example 1-72, 8-methoxy-3-(4-(trifluoromethoxy)phenyl)-2-(trifluoromethyl)-4H-pyrimido[1,2-a]pyrimidin-4-one] |
| 27.5 nM | 37% | CCOc1ccn2c(=O)c(-c3ccc(OCC(F)(F)F)cc3)c(C(F)(F)F)nc2c1 [Example 11-3, 8-ethoxy-3-(4-(2,2,2-trifluoroethoxy)phenyl)-2-(trifluoromethyl)-4H-pyrido[1,2-a]pyrimidin-4-one] |
| 5.1 nM | 62% | COc1ccn2c(=O)c(-c3ccc(OCC4CC4)cc3)c(C(F)(F)F)nc2c1 [Example 1-8, 3-(4-(cyclopropylmethoxy)phenyl)-8-methoxy-2-(trifluoromethyl)-4H-pyrido[1,2-a]pyrimidin-4-one] |
